Reference: US20230123334A1, “AMINO LIPID COMPOUND, PREPARATION METHOD THEREFOR, AND APPLICATION THEREOF” (SHENZHEN SHENXIN BIOTECHNOLOGY CO., LTD., priority 2020, published 2023)

Key:
HEK293 cells [1] = test: Preliminary screening as mRNA vectors, EGFP mRNA transfection of HEK293 cells; format: cell-based; conditions: HEK293 cells, 96-well plates, EGFP mRNA 50 ng per well; percentage of GFP fluorescent cells relative to total number of cells (Hoechst)
Summary of the method: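 Each well of HEK293 cells received 50 ng of EGFP mRNA. Efficiency was expressed as percent GFP-expressing cells over Hoechst-defined total cell number.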

HEK293 cells [2] = test: Preliminary screening as DNA vectors, GFP transfection of HEK293 cells; format: cell-based; conditions: HEK293 cells; lipid/DOPE liposome with 75 ng plasmid DNA (psin-EGFP-IRES-Puro); number of cells expressing GFP divided by total number of nuclei (Hoechst)
Summary of the method: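 Lipid + DOPE liposomes (NaOAc, pH 5.6) complexed w/ 75 ng psin-EGFP-IRES-Puro, 30 min RT; added to 3-5×10^4 HEK293/well, 37° C. Hoechst 0.2 μg/mL at 20-24 h, imaged after further 20-24 h. Efficiency = GFP+ cells / total nuclei.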

For CCCCCCCCCCCCN(CCCCCCCCCCCC)c1nc(NCCCCCCCC)nc(NCCN(CC)CC)n1 [N8^2N12D7], the “Absolute mRNA transfection efficiency in HEK293 cells” value (from here on “Absolute mRNA transfection efficiency”) (HEK293 cells [1]) was 0.0% and the “Absolute DNA transfection efficiency in HEK293 cells” value (“Absolute DNA transfection efficiency” for short) (HEK293 cells [2]) was 0.0%.
With CCCCCCCCCCCCN(CCCCCCCCCCCC)c1nc(NCCCCCCCC)nc(NCCCN2CCOCC2)n1 [N8^2N12D8] the “Absolute mRNA transfection efficiency” value (HEK293 cells [1]) was 2.0% and the “Absolute DNA transfection efficiency” value (HEK293 cells [2]) was 0.2%.
For CCCCCCCCCCCCN(CCCCCCCCCCCC)c1nc(NCCCCCCCC)nc(NCCCN2CCN(C)CC2)n1 [N8^2N12D9], the “Absolute mRNA transfection efficiency” value (HEK293 cells [1]) was 0.4% and the “Absolute DNA transfection efficiency” value (HEK293 cells [2]) was 0.2%.
In the case of CCCCCCCCCCCCN(CCCCCCCCCCCC)c1nc(NCCCCCCCC)nc(NCC2CCN(C)CC2)n1 [N8^2N12D10], the “Absolute mRNA transfection efficiency” value (HEK293 cells [1]) was 2.7% and the “Absolute DNA transfection efficiency” value (HEK293 cells [2]) was 0.0%.
With CCCCCCCCCCCCN(CCCCCCCCCCCC)c1nc(NCCCCCCCCC)nc(NCCN(C)C)n1 [N9^2N12D1] the “Absolute mRNA transfection efficiency” value (HEK293 cells [1]) was 4.7% and the “Absolute DNA transfection efficiency” value (HEK293 cells [2]) was 0.0%.
CCCCCCCCCCCCN(CCCCCCCCCCCC)c1nc(NCCCCCCCCC)nc(NCCN2CCOCC2)n1 [N9^2N12D2] was tested, and the “Absolute mRNA transfection efficiency” value (HEK293 cells [1]) was 1.3% and the “Absolute DNA transfection efficiency” value (HEK293 cells [2]) was 0.0%.
CCCCCCCCCCCCN(CCCCCCCCCCCC)c1nc(NCCCCCCCCC)nc(NCCN2CCCC2)n1 [N9^2N12D3] was tested, and the “Absolute mRNA transfection efficiency” value (HEK293 cells [1]) was 2.3% and the “Absolute DNA transfection efficiency” value (HEK293 cells [2]) was 0.4%.
With CCCCCCCCCCCCN(CCCCCCCCCCCC)c1nc(NCCCCCCCCC)nc(NCCN2CCCCC2)n1 [N9^2N12D4] the “Absolute mRNA transfection efficiency” value (HEK293 cells [1]) was 0.4% and the “Absolute DNA transfection efficiency” value (HEK293 cells [2]) was 0.0%.
For CCCCCCCCCCCCN(CCCCCCCCCCCC)c1nc(NCCCCCCCCC)nc(NCCN2CCN(C)CC2)n1 [N9^2N12D5], the “Absolute mRNA transfection efficiency” value (HEK293 cells [1]) was 1.8% and the “Absolute DNA transfection efficiency” value (HEK293 cells [2]) was 0.0%.
In the case of CCCCCCCCCCCCN(CCCCCCCCCCCC)c1nc(NCCCCCCCCC)nc(NCCCN(C)C)n1 [N9^2N12D6], the “Absolute mRNA transfection efficiency” value (HEK293 cells [1]) was 0.8% and the “Absolute DNA transfection efficiency” value (HEK293 cells [2]) was 0.3%.
CCCCCCCCCCCCN(CCCCCCCCCCCC)c1nc(NCCCCCCCCC)nc(NCCN(CC)CC)n1 [N9^2N12D7] was tested, and the “Absolute mRNA transfection efficiency” value (HEK293 cells [1]) was 0.2% and the “Absolute DNA transfection efficiency” value (HEK293 cells [2]) was 0.0%.
CCCCCCCCCCCCN(CCCCCCCCCCCC)c1nc(NCCCCCCCCC)nc(NCCCN2CCOCC2)n1 [N9^2N12D8] was tested, and the “Absolute mRNA transfection efficiency” value (HEK293 cells [1]) was 0.3% and the “Absolute DNA transfection efficiency” value (HEK293 cells [2]) was 0.0%.
In the case of CCCCCCCCCCCCN(CCCCCCCCCCCC)c1nc(NCCCCCCCCC)nc(NCCCN2CCN(C)CC2)n1 [N9^2N12D9], the “Absolute mRNA transfection efficiency” value (HEK293 cells [1]) was 3.9% and the “Absolute DNA transfection efficiency” value (HEK293 cells [2]) was 0.0%.
For CCCCCCCCCCCCN(CCCCCCCCCCCC)c1nc(NCCCCCCCCC)nc(NCC2CCN(C)CC2)n1 [N9^2N12D10], the “Absolute mRNA transfection efficiency” value (HEK293 cells [1]) was 2.9% and the “Absolute DNA transfection efficiency” value (HEK293 cells [2]) was 0.0%.
CCCCCCCCCCCCNc1nc(NCCN(C)C)nc(N(CCCCCCCCCCCC)CCCCCCCCCCCC)n1 [N12^2N12D1] was tested, and the “Absolute mRNA transfection efficiency” value (HEK293 cells [1]) was 2.8% and the “Absolute DNA transfection efficiency” value (HEK293 cells [2]) was 0.5%.
CCCCCCCCCCCCNc1nc(NCCN2CCOCC2)nc(N(CCCCCCCCCCCC)CCCCCCCCCCCC)n1 [N12^2N12D2] was tested, and the “Absolute mRNA transfection efficiency” value (HEK293 cells [1]) was 0.3% and the “Absolute DNA transfection efficiency” value (HEK293 cells [2]) was 0.4%.
With CCCCCCCCCCCCNc1nc(NCCN2CCCC2)nc(N(CCCCCCCCCCCC)CCCCCCCCCCCC)n1 [N12^2N12D3] the “Absolute mRNA transfection efficiency” value (HEK293 cells [1]) was 5.8% and the “Absolute DNA transfection efficiency” value (HEK293 cells [2]) was 3.2%.
For CCCCCCCCCCCCNc1nc(NCCN2CCCCC2)nc(N(CCCCCCCCCCCC)CCCCCCCCCCCC)n1 [N12^2N12D4], the “Absolute mRNA transfection efficiency” value (HEK293 cells [1]) was 2.6% and the “Absolute DNA transfection efficiency” value (HEK293 cells [2]) was 2.5%.
With CCCCCCCCCCCCNc1nc(NCCN2CCN(C)CC2)nc(N(CCCCCCCCCCCC)CCCCCCCCCCCC)n1 [N12^2N12D5] the “Absolute mRNA transfection efficiency” value (HEK293 cells [1]) was 2.2% and the “Absolute DNA transfection efficiency” value (HEK293 cells [2]) was 0.5%.
In the case of CCCCCCCCCCCCNc1nc(NCCCN(C)C)nc(N(CCCCCCCCCCCC)CCCCCCCCCCCC)n1 [N12^2N12D6], the “Absolute mRNA transfection efficiency” value (HEK293 cells [1]) was 1.2% and the “Absolute DNA transfection efficiency” value (HEK293 cells [2]) was 3.6%.
For CCCCCCCCCCCCNc1nc(NCCN(CC)CC)nc(N(CCCCCCCCCCCC)CCCCCCCCCCCC)n1 [N12^2N12D7], the “Absolute mRNA transfection efficiency” value (HEK293 cells [1]) was 2.0% and the “Absolute DNA transfection efficiency” value (HEK293 cells [2]) was 2.2%.
With CCCCCCCCCCCCNc1nc(NCCCN2CCOCC2)nc(N(CCCCCCCCCCCC)CCCCCCCCCCCC)n1 [N12^2N12D8] the “Absolute mRNA transfection efficiency” value (HEK293 cells [1]) was 3.2% and the “Absolute DNA transfection efficiency” value (HEK293 cells [2]) was 0.6%.
CCCCCCCCCCCCNc1nc(NCCCN2CCN(C)CC2)nc(N(CCCCCCCCCCCC)CCCCCCCCCCCC)n1 [N12^2N12D9] was tested, and the “Absolute mRNA transfection efficiency” value (HEK293 cells [1]) was 0.7% and the “Absolute DNA transfection efficiency” value (HEK293 cells [2]) was 3.0%.
CCCCCCCCCCCCNc1nc(NCC2CCN(C)CC2)nc(N(CCCCCCCCCCCC)CCCCCCCCCCCC)n1 [N12^2N12D10] was tested, and the “Absolute mRNA transfection efficiency” value (HEK293 cells [1]) was 0.9% and the “Absolute DNA transfection efficiency” value (HEK293 cells [2]) was 0.7%.
